Measured values reported in BigSolDB 2.1.

CC(C)(C)OC(=O)N[C@@H](CC(=O)O)Cc1cc(F)c(F)cc1F
solubility (mole fraction)
Conditions	in THF	in ethanol	in ethyl acetate	in methanol	in n-butanol	in n-propanol
280.15 K	0.0933	0.036	0.0409	0.053	0.0274	0.0312
285.15 K	0.105	0.042	0.0477	0.0582	0.0306	0.0374
290.15 K	0.116	0.0483	0.0556	0.0669	0.0353	0.0449
295.15 K	0.129	0.0559	0.0652	0.0751	0.0426	0.0522
300.15 K	0.144	0.0659	0.0773	0.085	0.0514	0.0619
305.15 K	0.163	0.0754	0.089	0.097	0.0619	0.0718
310.15 K	0.187	0.0894	0.104	0.111	0.0735	0.0847
315.15 K	0.215	0.103	0.121	0.129	0.0868	0.0985
320.15 K	0.244	0.125	0.14	0.151	0.103	0.116
325.15 K	0.279	0.147	0.164	0.178	0.126	0.139
330.15 K	0.322	0.173	0.188	0.211	0.154	0.162
